# Target: T1, human NAAA (Homo sapiens, UniProt Q02083)
# T1 construct: expressed in transfected cells; host or cells: HEK-293 (stably transfected, G418 selection); enzyme-enriched lysate
# T1 sequence (Q02083 126-359 limits assumed): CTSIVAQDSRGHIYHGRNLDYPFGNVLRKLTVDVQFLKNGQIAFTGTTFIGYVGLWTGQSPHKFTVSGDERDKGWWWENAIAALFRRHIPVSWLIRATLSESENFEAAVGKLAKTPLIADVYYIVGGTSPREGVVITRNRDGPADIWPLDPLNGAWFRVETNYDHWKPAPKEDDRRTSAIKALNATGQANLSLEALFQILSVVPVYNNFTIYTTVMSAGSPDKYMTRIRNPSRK
# T1 sequence (Q02083 29-125 limits assumed): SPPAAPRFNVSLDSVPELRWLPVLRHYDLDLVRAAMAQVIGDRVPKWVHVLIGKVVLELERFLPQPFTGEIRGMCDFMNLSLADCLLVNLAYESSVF
# Assay: In vitro human NAAA fluorogenic assay
# Format: biochemical
# Conditions: enzyme-enriched lysate of HEK-293 cells stably transfected with human NAAA; read-out: Activity h-NAAA Fluorogenic assay
# Description: Human recombinant proteins were obtained from HEK-293 stable overexpressing NAAA cell lines. Cells were grown in Dulbecco's modified Eagle medium (DMEM) containing 10% FBS, 1% penicillin/streptomycin, 1% glutamine and 500 μg/mL G418. To obtain membrane preparation cells were scraped off with cold phosphate-buffered saline (PBS) and collected by centrifugation (300×g, 7 min, 4° C.). Cell pellet were stored at −80° C. until protein preparation.
# In Vitro Human NAAA Assay
# Preparation of Enzyme-Enriched Lysate (h-NAAA).
# HEK-293 cells stably transfected with the human NAAA coding sequences were used as enzyme source. Cell pellets were suspended in 20 mM Tris HCl (pH 7.4) with 0.32 M sucrose, sonicated and centrifuged at 800×g for 30 min at 4° C. Supernatants were then ultracentrifuged at 12,000×g for 30 min at 4° C. Pellets were re-suspended in PBS buffer (pH 7.4) and subjected to three freeze-thaw cycles at −80° C. The suspension was finally ultracentrifuged at 105,000×g for 1 h at 4° C., supematants were collected, protein concentration was measured and samples aliquoted and stored at −80° C. until use.
# The results are summarized in Table 3 as follows, wherein +: IC50>2 μM; ++: 1.0 μM<IC50<2 μM; +++: IC50<1 μM: […]
row,IC50 [nM],SMILES
1,< 1000,"Cc1n[nH]c(C)c1S(=O)(=O)N1C2CCC1CC(Oc1ccccc1)C2 [Example 01, (1R,3s,5S)-8-[(3,5-Dimethyl-1H-pyrazol-4-yl)sulfonyl]-3-phenoxy-8-azabicyclo[3.2.1]octane]"
2,< 1000,"Cc1n[nH]c(C)c1S(=O)(=O)N1C2CCC1CC(Oc1ccccc1)C2 [Example 02, (1R,3r,5S)-8-[(3,5-Dimethyl-1H-pyrazol-4-yl)sulfonyl]-3-phenoxy-8-azabicyclo[3.2.1]octane]"
3,< 1000,"Cc1cccc(OC2CC3CCC(C2)N3S(=O)(=O)c2c(C)n[nH]c2C)c1 [Example 04, (1R,3r,5S)-3-(3-Methylphenoxy)-8-[(3,5-dimethyl-1H-pyrazol-4-yl)sulfonyl]-8-azabicyclo[3.2.1]octane]"
4,> 2000,"Cc1cccc(OC2CC3CCC(C2)N3S(=O)(=O)c2c(C)n[nH]c2C)c1 [Example 05, (1R,3s,5S)-3-(3-Methylphenoxy)-8-[(3,5-dimethyl-1H-pyrazol-4-yl)sulfonyl]-8-azabicyclo[3.2.1]octane]"
5,< 1000,"Cc1ccc(OC2CC3CCC(C2)N3S(=O)(=O)c2c(C)n[nH]c2C)cc1 [Example 07, (1R,3r,5S)-3-(4-methylphenoxy)-8-[(3,5-dimethyl-1H-pyrazol-4-yl)sulfonyl]-8-azabicyclo[3.2.1]octane]"
6,> 2000,"Cc1ccc(OC2CC3CCC(C2)N3S(=O)(=O)c2c(C)n[nH]c2C)cc1 [Example 10, (1R,3s,5S)-3-(4-methylphenoxy)-8-[(3,5-dimethyl-1H-pyrazol-4-yl)sulfonyl]-8-azabicyclo[3.2.1]octane]"
7,> 2000,"Cc1ccccc1OC1CC2CCC(C1)N2S(=O)(=O)c1c(C)n[nH]c1C [Example 11, (1R,3s,5S)-3-(2-methylphenoxy)-8-[(3,5-dimethyl-1H-pyrazol-4-yl)sulfonyl]-8-azabicyclo[3.2.1]octane]"
8,< 1000,"Cc1ccccc1OC1CC2CCC(C1)N2S(=O)(=O)c1c(C)n[nH]c1C [Example 12, (1R,3r,5S)-3-(2-methylphenoxy)-8-[(3,5-dimethyl-1H-pyrazol-4-yl)sulfonyl]-8-azabicyclo[3.2.1]octane]"
9,< 1000,"Cc1n[nH]c(C)c1S(=O)(=O)N1C2CCC1CC(Oc1cnccn1)C2 [Example 13, (1R,3r,5S)-8-[(3,5-Dimethyl-1H-pyrazol-4-yl)sulfonyl]-3-pyrazin-2-yloxy-8-azabicyclo[3.2.1]octane]"
10,> 2000,"CCCCc1ccc(OC2CC3CCC(C2)N3S(=O)(=O)c2cc(C)sc2C)cc1 [Example 16, (1R,3r,5S)-3-(4-Butylphenoxy)-8-[(2,5-dimethyl-3-thienyl)sulfonyl]-8-azabicyclo[3.2.1]octane]"
11,< 1000,"CCc1ccc(OC2CC3CCC(C2)N3S(=O)(=O)c2c(C)n[nH]c2C)cc1 [Example 17, (1R,3r,5S)-3-(4-Ethylphenoxy)-8-[(3,5-dimethyl-1H-pyrazol-4-yl)sulfonyl]-8-azabicyclo[3.2.1]octane]"
12,> 2000,"Cc1n[nH]c(C)c1S(=O)(=O)N1C2CCC1CC(Oc1ccc3ccccc3n1)C2 [Example 22, (1R,3r,5S)-8-[(3,5-Dimethyl-1H-pyrazol-4-yl)sulfonyl]-3-(2-quinolyloxy)-8-azabicyclo[3.2.1]octane]"
13,< 1000,"Cc1n[nH]c(C)c1S(=O)(=O)N1C2CCC1CC(Oc1ccccn1)C2 [Example 25, (1R,3r,5S)-8-[(3,5-Dimethyl-1H-pyrazol-4-yl)sulfonyl]-3-(2-pyridiloxy)-8-azabicyclo[3.2.1]octane]"
14,< 1000,"CCCOc1ccc(OC2CC3CCC(C2)N3S(=O)(=O)c2c(C)n[nH]c2C)cc1 [Example 26, (1R,3r,5S)-3-(4-Propoxyphenoxy)-8-[(3,5-dimethyl-1H-pyrazol-4-yl)sulfonyl]-8-azabicyclo[3.2.1]octane]"
15,> 2000,"Cc1n[nH]c(C)c1S(=O)(=O)N1C2CCC1CC(Oc1nc3c(C)cccc3o1)C2 [Example 28, (1R,3r,5S)-8-[(3,5-Dimethyl-1H-pyrazol-4-yl)sulfonyl]-3-(2-(4-methyl)-benzoxazoloxy)-8-azabicyclo[3.2.1]octane]"
16,< 1000,"Cc1n[nH]c(C)c1S(=O)(=O)N1C2CCC1CC(Oc1ccc(C(F)(F)F)cc1)C2 [Example 29, (1R,3r,5S)-3-(4-Trifluoromethyl-phenoxy)-8-[(3,5-dimethyl-1H-pyrazol-4-yl)sulfonyl]-8-azabicyclo[3.2.1]octane]"
17,> 2000,"CCN(CC)Cc1ccc(OC2CC3CCC(C2)N3S(=O)(=O)c2c(C)n[nH]c2C)cc1 [Example 32, (1R,3r,5S)-3-[4-Diethylaminomethyl-phenoxy]-8-[(3,5-dimethyl-1H-pyrazol-4-yl)sulfonyl]-8-azabicyclo[3.2.1]octane]"
18,< 1000,"Cc1n[nH]c(C)c1S(=O)(=O)N1C2CCC1CC(Oc1ccc(CCC(C)C)cc1)C2 [Example 33, (1R,3r,5S)-3-[4-Isopentyl-phenoxy]-8-[(3,5-dimethyl-1H-pyrazol-4-yl)sulfonyl]-8-azabicyclo[3.2.1]octane]"
19,> 2000,"Cc1n[nH]c(C)c1S(=O)(=O)N1C2CCC1CC(Oc1cnc3ccccc3n1)C2 [Example 34, (1R,3r,5S)-8-[(3,5-Dimethyl-1H-pyrazol-4-yl)sulfonyl]-3-(2-quinoxalyloxy)-8-azabicyclo[3.2.1]octane]"
20,< 1000,"CCOCc1ccc(OC2CC3CCC(C2)N3S(=O)(=O)c2c(C)n[nH]c2C)cc1 [Example 35, (1R,3r,5S)-3-(4-Ethoxymethyl-phenoxy)-8-[(3,5-dimethyl-1H-pyrazol-4-yl)sulfonyl]-8-azabicyclo[3.2.1]octane]"

row,SMILES,IC50 [nM]
1,"Cc1n[nH]c(C)c1S(=O)(=O)N1C2CCC1CC(Oc1ccc(-c3ccccc3)cc1)C2 [Example 06, (1R,3r,5S)-3-(4-phenylphenoxy)-8-[(3,5-dimethyl-1H-pyrazol-4-yl)sulfonyl]-8-azabicyclo[3.2.1]octane]",1000 to 2000
2,"CCCCc1ccc(OC2CC3CCC(C2)N3S(=O)(=O)c2c(C)nn(C)c2C)cc1 [Example 14, (1R,3r,5S)-3-(4-Butylphenoxy)-8-(1,3,5-trimethylpyrazol-4-yl)sulfonyl-8-azabicyclo[3.2.1]octane]",< 1000
3,"Cc1n[nH]c(C)c1S(=O)(=O)N1C2CCC1CC(Oc1ccc(C(C)C)cc1)C2 [Example 18, (1R,3r,5S)-3-(4-Isopropylphenoxy)-8-[(3,5-dimethyl-1H-pyrazol-4-yl)sulfonyl]-8-azabicyclo[3.2.1]octane]",< 1000
4,"CCCCc1ccc(OC2CC3CCC(C2)N3S(=O)(=O)c2c(C(C)C)n[nH]c2C)cc1 [Example 20, (1R,3r,5S)-3-(4-Butylphenoxy)-8-[(3-isopropyl-5-methyl-1H-pyrazol-4-yl)sulfonyl]-8-azabicyclo[3.2.1]octane]",< 1000
5,"Cc1ccc(OC2CC3CCC(C2)N3S(=O)(=O)c2c(C)n[nH]c2C)c(F)c1 [Example 21, (1R,3r,5S)-3-(2-Fluoro-4-methylphenoxy)-8-[(3,5-dimethyl-1H-pyrazol-4-yl)sulfonyl]-8-azabicyclo[3.2.1]octane]",< 1000
6,"Cc1n[nH]c(C)c1S(=O)(=O)N1C2CCC1CC(Oc1nc3ccccc3o1)C2 [Example 23, (1R,3r,5S)-8-[(3,5-Dimethyl-1H-pyrazol-4-yl)sulfonyl]-3-(2-benzoxazoloxy)-8-azabicyclo[3.2.1]octane]",< 1000
7,"COc1ccc(O[C@H]2C[C@H]3CC[C@@H](C2)N3S(=O)(=O)c2c(C)n[nH]c2C)cc1 [Example 24, (1R,3r,5S)-3-(4-Methoxyphenoxy)-8-[(3,5-dimethyl-1H-pyrazol-4-yl)sulfonyl]-8-azabicyclo[3.2.1]octane]",< 1000
8,"Cc1ccc(OC2CC3CCC(C2)N3S(=O)(=O)c2c(C)n[nH]c2C)nc1 [Example 27, (1R,3r,5S)-8-[(3,5-Dimethyl-1H-pyrazol-4-yl)sulfonyl]-3-[(5-methyl-2-pyridil)oxy]-8-azabicyclo[3.2.1]octane]",< 1000
9,"Cc1n[nH]c(C)c1S(=O)(=O)N1C2CCC1CC(Oc1ccc(C=O)cc1)C2 [Example 30, (1R,3r,5S)-3-(4-Formyl-phenoxy)-8-[(3,5-dimethyl-1H-pyrazol-4-yl)sulfonyl]-8-azabicyclo[3.2.1]octane]",< 1000
10,"Cc1n[nH]c(C)c1S(=O)(=O)N1C2CCC1CC(Oc1ccc(CO)cc1)C2 [Example 31, (1R,3r,5S)-3-(4-Hydroxymethyl-phenoxy)-8-[(3,5-dimethyl-1H-pyrazol-4-yl)sulfonyl]-8-azabicyclo[3.2.1]octane]",< 1000
11,"Cc1cnc(OC2CC3CCC(C2)N3S(=O)(=O)c2c(C)n[nH]c2C)cn1 [Example 36, (1R,3r,5S)-8-[(3,5-Dimethyl-1H-pyrazol-4-yl)sulfonyl]-3-(5-methylpyrazin-2-yl)oxy-8-azabicyclo[3.2.1]octane]",< 1000
